Values of other authors in patent US20260355142A1, “AMORPHOUS OTE[…] COMPOSITIONS AND USES THEREOF AND DOSAGE REGIMENS FOR OTENAPROXESUL” (ANTIBE THERAPEUTICS INC., priority 2022, published 2026).

Details: efficacious dose of naproxen, known in the art; cited from earlier work

For COc1ccc2cc([C@H](C)C(=O)O)ccc2c1 [naproxen, (2S)-2-(6-methoxynaphthalen-2-yl) propanoic acid], the “patients with noticeable GI injury” value is given as “approximately 30%”.
